{"source": "patent US5344841A", "about": "“Bis-(hydroxylakylamino)-anthraquinone inhibitors of protein kinase C” (Sphinx Pharmaceuticals Corporation, priority 1992, dated 1994)", "key": {"protein kinase C": {"target": "protein kinase C", "assay": "Protein kinase C (PKC) inhibition assay (histone H1 phosphorylation)", "format": "biochemical", "details": "rat brain PKC, histone H1 substrate", "method": "The protein kinase C (PKC) assay is designed to duplicated the in vivo conditions required for protein kinase C function. Therefore, pH, salt and cofactor concentrations are similar to physiologic levels. Histone H1 (lysine rich) is used in the assay as the phosphorylation acceptor protein because it is readily available and serves as a good substrate for protein kinase C. The enzyme is prepared from rat brain and is purified to apparent homogeneity as determined by a single band on silver stained SDS-polyacrylamide. Studies on the mechanism of regulation of protein kinase C by phospholipids, DAG and Ca^+2 have been hampered by the physical properties of the lipid cofactors. In the screening assay, phosphatidylserine (PS) and DAG are cosonicated to form unilamellar and multilamellar vesicles. The concentration of lipids in the assay are suboptimal to maximize the detection potential of the assay for inhibitors. […] The assay is started with the addition of enzyme and stopped after 10 min by the addition of 25% trichloroacetic acid (TCA) and 1.0 mg/ml bovine serum albumin (BSA). The radioactive histone product is retained and washed on glass fiber filters that allow the unreacted ^32 P-ATP to pass through. The amount of phosphorylation is determined by the radioactivity measured in a scintillation counter. Controls are included in every assay to measure background activity in the absence of enzyme, activity in the absence of lipids and the maximum enzyme activity with saturating levels of the activator lipids."}, "[1]": {"system": "8226/ADR adriamycin resistant line of 8226 cells", "assay": "Human tumor growth inhibition, 3H-thymidine incorporation, 8226/ADR", "format": "cell-based", "details": "8226/ADR vs 8226", "source_text": "(§1) MCF-7 a human breast tumor cell line, and MCF-7/ADR an adriamycin resistant line of MCF-7 cells were obtained from the National Cancer Institute, Frederick, Md. NHEK a human keratinocyte cell line was obtained from Clonetic Corp., San Diego, Calif. 8226 a human myeloma cell line, 8226/MT a Mitoxantrone resistant line of 8226 cells, and 8226 ADR an adriamycin resistant line of 8226 cells were obtained from Dr. Bill Dalton, Arizona Cancer Center, Tuscon, Ariz.\n(§2) Human tumor cells are trypsinized (0.05% trypsin, GIBCO), counted with a hemacytometer and seeded at a concentration of 10,000 cells/well in a 96 well microtiter plate. After allowing cells to attach to the surface overnight, the culture medium is aspirated and replaced with 100 μl of fresh medium. Test agents are diluted to determine dose response at 2× final concentration and added in quadruplicate at 100 μl/well to bring the total volume of each well to 200 μl. The microtiter plate is then incubated at 37° C. 5% CO2 overnight (18-24 hrs) before ^3 H-thymidine is added at a concentration of 0.5 μCi/well in 50 μl culture medium. The plate is incubated again for 4 hrs under the same conditions as above. Supernatant is then aspirated and 50 μl trypsin (0.05%, GIBCO) is added to each well. Cells are checked microscopically to determine detachment from surfaces, and plates are then harvested with a cell harvester (PHD, Cambridge Technology, Inc.) Filter papers corresponding to wells are placed in scintillation vials and counted to determine the amount of ^3 H-thymidine incorporated by the cells. Test agent response is compared to a positive control of cell wells with culture media only to determine the IC50. IC50 is the concentration of test compound required to inhibit fifty percent of the incorporation of ^3 H-thymidine into proliferating cells not exposed to test agent. Uptake of ^3 H-thymidine is a standard test for measuring the metabolism of cells. Cells which are actively proliferating take up ^3 H-thymidine, whereas cells that are not proliferating take up ^3 H-thymidine at much slower rates or not at all. Test agents that inhibit the uptake of ^3 H-thymidine thus slow the growth of cells."}, "[2]": {"system": "MCF-7/ADR adriamycin resistant line of MCF-7 cells", "assay": "Human tumor growth inhibition, 3H-thymidine incorporation, MCF-7/ADR", "format": "cell-based", "details": "MCF-7/ADR vs MCF-7", "source_text": "as §1, §2"}, "[3]": {"system": "8226 human myeloma cell line", "assay": "Human tumor growth inhibition, 3H-thymidine incorporation, 8226", "format": "cell-based", "details": "3H-thymidine uptake, read-out: IC50 8226", "source_text": "as §1, §2"}}}
{"smiles": "CCN(CC)CC(O)CNc1ccc(NCC2CO2)c2c1C(=O)c1ccccc1C2=O", "note": "(stereo not shown) [Compound 1b-1, 1-(3-diethylamino-2-hydroxypropylamino)-4-(2,3-epoxypropylamino)-9, 10-anthracenedione]", "values": [{"measurement": "IC50", "setting": "protein kinase C", "value": 110, "unit": "µM"}, {"measurement": "Resistance Ratio (8226/ADR)", "setting": "[1]", "value": 0.26}, {"measurement": "Resistance Ratio (IC50 MCF-7/ADR to IC50 MCF-7)", "setting": "[2]", "value": 2.4}, {"measurement": "IC50", "setting": "[3]", "value": 0.06, "unit": "µM"}]}
